Laboratory results from patent US4959368A, “Therapeutic agent for neurological diseases” (Mitsui Petrochemical Industries Ltd., priority 1986, dated 1990).

What was measured:
[1] = tested on: human neuroblastoma cell line GOTO; test: Activity on neuroblastoma cell line GOTO (cell number, number and length of neurites); format: cell-based
Procedure: The biological activities in vitro of the compounds of formula (I) on cells of the nervous system were tested. The cells tested were human neuroblastoma cell line GOTO [see Sekiguchi, M., Oota, T., Sakakibara, K., Inui, N. & Fujii, G., Japan. J. Exp. Med., 49, 67-83 (1979)], and neuroblastoma cell line NB-1 [see Miyake, S., Shimo, Y., Kitamura, T., Nojyo, Y., Nakamura, T., Imkashuku, S. and Abe, T., The Autonomic Nervous System, 10, 115-120 (1973)], and mouse neuroblastoma cell line neuro-2a (Dainippon Pharmaceutical Co., Ltd.) which have been established as the cells of the nervous system. The above neuve cells were grown in an incubator at 37° C. in the presence of 5% carbon dioxide gas exponentially, and then cultivated for a certain period of time together with the compounds of formula (I).
The effect of the compounds of this invention on neuroblastoma cells was examined by the following method.
A culture medium [composed of 45% of RPMI 1640 medium, 45% modified Eagle's medium (MEM) and 10% of fetal calf serum (FCS) and containing penicillin G sodium (100 units/ml) and streptomycin sulfate (100 microgram/ml)] containing neurobalstoma cell line GOTO in the logarithmic growth period was poured in an amount of 2 ml each into polystyrene dishes (35 mm; made by Corning Co.) so that the cell concentration was 2 to 6×10^4 cells per dish, and the cells were cultured for 1 to 2 days in a carbon dioxide gas incubator containing 5% of carbon dioxide gas in air at 37° C. Then, the culture fluid was removed, and 2 ml of a fresh serum-free culture fluid (consisting of 50% of RPMI medium and 50% of MEM medium and containing penicillin G sodium and streptomycin sulfate in the same amounts as above) was added. At the same time, a presterilized PBS solution (phosphate buffered saline) of each of the test compounds in various concentrations was added to each of the dishes. After culturing for 24 hours, the number of living cells was counted. Furthermore, the culture was photographed, and from the photos, the number and length of neurites per cell were measured. The numer of living cells was counted for 3 to 6 dishes by resistance to staining with erythrosine dye. The number and length of the neurites were measured with regard to 6 photos (more than 200 cells per photo).

[2] = tested on: mouse neuroblastoma cell line neuro-2a; test: Activity on neuro-2a, cells with outgrown neurites; format: cell-based
Procedure: In order to examine the effects of the test compounds, the following method was also employed.
Mouse neuro 2a cells in the logarithmic growth period in the Dulbecco's modified Eagle's medium (DMEM) containing 10% FCS was seeded in a 48-well plate so that the number of cells was 1,000 cells/well, and cultured for one day in 0.25 ml of the culture fluid in each well. The culture medium was then replaced by a medium containing each of the test compounds and FCS, and the cells were further cultured for 24 hours. Then, a 4% aqueous glutaraldehyde solution in the same amount as the medium (0.25 ml) was added, and the culture fluid was left to stand at room temperature for 2 hours to fix the cells. After washing with water, a 0.05% aqueous solution of methylene blue was added to stain the cells. Under a microscope, the number of cells containing outgrown neurites (cells having at least one neutrite with a length at least two times as large as the long diameter of the cell) was counted visually, and the proportion of these cells in the entire cells was calculated. The well was observed over 5 or more visual fields (at least 2% of the entire surface area of the well) continuous to the left and right from a mark put at the center of the well, and more than 200 cells was counted. One drug compound was used in 6 different concentrations at most, and three runs were conducted for each concentration.

mice = test: Acute toxicity, mouse; format: in vivo; details: Table 7, 1000 mg/kg p.o., 24 hours
Procedure: The acute toxicity of the compounds of the invention was examined by the following method.
Male ddy-strain 5-week old mice and male Wistar-strain 8 week old rats, five per group, were used as experimental animals. Each of the compounds was dissolved in saline and administered perorally, and the toxicity of the compound was assessed 24 hours after the administration.

[3] = Table 3 Run No. 2, 0.3 mM, control 1.9 ± 0.9
[4] = Table 3 Run No. 2, 1 mM, control 1.9 ± 0.9
[5] = Table 3 Run No. 11, 0.1 mM, control 2.5 ± 0.6
[6] = Table 3 Run No. 11, 0.3 mM, control 2.5 ± 0.6

CCNc1nc(N2CCNCC2)ncc1C(=O)OC [Compound 136]
Number of neurites/cell (mean ± S.D.) ([1]; Table 1 Run No. 2, 1 μg/ml, control 2.06 ± 0.60): 2.14 ± 0.63 neurites/cell
Number of cells (mean ± S.E.) ([1]; Table 1 Run No. 2, 1 μg/ml, control 12.30 ± 1.48): 12.85 ± 2.52 × 10^4 /dish
Length of neurites (mean ± S.D.) ([1]; Table 1 Run No. 2, 1 μg/ml, control 55.00 ± 37.26): 60.24 ± 34.28 μm/cell
Cells having neurites with a length at least twice the long diameter of cell/total number of cells ([2]; Table 3 Run No. 2, 0.1 mM, control 1.9 ± 0.9): 7.2 ± 1.7%
Cells having neurites with a length at least twice the long diameter of cell/total number of cells ([2]; Table 3 Run No. 10, 0.01 mM, control 1.7 ± 0.7): 5.8 ± 1.6%
Cells having neurites with a length at least twice the long diameter of cell/total number of cells ([2]; Table 3 Run No. 10, 0.03 mM, control 1.7 ± 0.7): 16.4 ± 0.9%
Cells having neurites with a length at least twice the long diameter of cell/total number of cells ([2]; Table 3 Run No. 10, 0.1 mM, control 1.7 ± 0.7): 12.6 ± 1.4%

CC(C)N1Cc2nc(N3CCNCC3)ncc2C1=O [Compound 628]
Length of neurites (mean ± S.D.) ([1]; Table 1, Run No. 6 by footnote, 1 μg/ml, control 42.48 ± 19.64, all *P <0.01): 55.72 ± 25.08 μm/cell
Number of neurites/cell (mean ± S.D.) ([1]; Table 1, Run No. 6 by footnote, 10 μg/ml, control 1.79 ± 0.80): 2.06 ± 0.81 neurites/cell
Length of neurites (mean ± S.D.) ([1]; Table 1, Run No. 6 by footnote, 10 μg/ml, control 42.48 ± 19.64, all *P <0.01): 53.68 ± 22.36 μm/cell
Number of neurites/cell (mean ± S.D.) ([1]; Table 1, second control group (Run No. 6 by footnote), 1 μg/ml, control 1.79 ± 0.80): 1.90 ± 0.81 neurites/cell

CN1C(=O)Cc2cnc(N3CCN(Cc4ccc5c(c4)OCO5)CC3)nc21 [Compound 438, 5,6-Dihydro-7-methyl-2[4-(3,4-methylenedioxyphenylmethyl)piperazino]-6-oxo(7H)pyrrolo[2,3-d]pyrimidine naphthalene-2-sulfonate]
Number of dead animals/number of test animals (mice): 0/5

CC(=O)N1Cc2nc(N3CCNCC3)ncc2C1=O [Compound 650, 6-Acetyl-2-piperazino-5-oxo-5,6-dihydro(7H)pyrrolo[3,4-d]pyrimidine naphthalene-2-sulfonate]
Number of dead animals/number of test animals (mice): 0/5

CN1C(=O)Cc2cnc(N3CCNCC3)nc21 [Compound 420]
Cells having neurites with a length at least twice the long diameter of cell/total number of cells ([2]; Table 3 Run No. 8, 0.3 mM, control 3.7 ± 0.4): 16.5 ± 2.1%
Cells having neurites with a length at least twice the long diameter of cell/total number of cells ([2]; Table 3 Run No. 8, 0.5 mM, control 3.7 ± 0.4): 30.6 ± 5.0%
Cells having neurites with a length at least twice the long diameter of cell/total number of cells ([2]; Table 3 Run No. 8, 1 mM, control 3.7 ± 0.4): 47.5 ± 0.6%

CCCN(CCC)C(=O)c1cnc(N2CCNCC2)nc1NCC [Compound 104]
Cells having neurites with a length at least twice the long diameter of cell/total number of cells [2, 3]: 10.6 ± 4.6%
Cells having neurites with a length at least twice the long diameter of cell/total number of cells [2, 4]: 5.3 ± 1.8%

CC1C(=O)N(C)c2nc(N3CCNCC3)ncc21.O=C(O)/C=C\C(=O)O (centres unmarked) [Compound 446, 5,6-Dihydro-5,7-dimethyl-6-oxo-2-piperazino(7H)pyrrolo[2,3-d]pyrimidine maleate]
Cells having neurites with a length at least twice the long diameter of cell/total number of cells ([2]; Table 3 Run No. 9, 0.5 mM, control 2.0 ± 1.0): 6.3 ± 0.4%
Cells having neurites with a length at least twice the long diameter of cell/total number of cells ([2]; Table 3 Run No. 9, 1 mM, control 2.0 ± 1.0): 9.2 ± 2.0%

CCOC(=O)CN1CCN(c2ncc(C(=O)OC)c(NC(C)C)n2)CC1 [Compound 100, Methyl 2-(4-ethoxycarbonylmethylpiperazino)-4-isopropylaminopyrimidine-5-carboxylate]
Number of neurites/cell (mean ± S.D.) ([1]; Table 1, Run No. 7 by footnote, 10 μg/ml, control 1.77 ± 0.68): 2.00 ± 0.79 neurites/cell
Length of neurites (mean ± S.D.) ([1]; Table 1, Run No. 7 by footnote, 10 μg/ml, control 42.20 ± 17.75, all *P <0.01): 56.06 ± 26.47 μm/cell

CCOC(=O)CC1C(=O)N(C)c2nc(N3CCNCC3)ncc21 (centres unmarked) [Compound 674]
Cells having neurites with a length at least twice the long diameter of cell/total number of cells ([2]; Table 3 Run No. 11, 0.03 mM, control 2.5 ± 0.6): 4.2 ± 0.8%
Cells having neurites with a length at least twice the long diameter of cell/total number of cells [2, 5]: 6.7 ± 1.3%
Cells having neurites with a length at least twice the long diameter of cell/total number of cells [2, 6]: 4.5 ± 1.9%

CCN(CC)C(=O)c1cnc(N2CCNCC2)nc1NC(C)C [Compound 108]
Cells having neurites with a length at least twice the long diameter of cell/total number of cells [2, 3]: 4.6 ± 1.2%
Cells having neurites with a length at least twice the long diameter of cell/total number of cells [2, 4]: 6.9 ± 1.6%

CCN(CC)C(=O)c1cnc(N2CCNCC2)nc1OC [Compound 112]
Cells having neurites with a length at least twice the long diameter of cell/total number of cells [2, 4]: 3.5 ± 0.5%

CCC(C)N1Cc2nc(N3CCNCC3)ncc2C1=O (centres unmarked) [Compound 638]
Cells having neurites with a length at least twice the long diameter of cell/total number of cells ([2]; Table 3 Run No. 9, 0.1 mM, control 2.0 ± 1.0): 6.5 ± 0.2%

Cl.c1nc(N2CCNCC2)nc2c1CCC2 [Compound 202, 6,7-Dihydro-2-piperazino(5H)cyclopentapyrimidine hydrochloride]
Cells having neurites with a length at least twice the long diameter of cell/total number of cells ([2]; Table 3 Run No. 6, 0.1 mM, control 4.4 ± 0.9): 5.6 ± 1.1%

COc1cc2cnc(N3CCNCC3)nc2cc1OC [Compound 940]
Number of neurites/cell (mean ± S.D.) ([1]; Table 1 Run No. 1, 10 μg/ml, control 2.09 ± 0.61): 2.12 ± 0.60 neurites/cell
Number of cells (mean ± S.E.) ([1]; Table 1 Run No. 1, 10 μg/ml, control 14.34 ± 0.72): 21.55 ± 2.36 × 10^4 /dish
Length of neurites (mean ± S.D.) ([1]; Table 1 Run No. 1, 10 μg/ml, control 70.10 ± 43.03): 77.92 ± 49.91 μm/cell
Cells having neurites with a length at least twice the long diameter of cell/total number of cells [2, 5]: 11.5 ± 0.2%
Cells having neurites with a length at least twice the long diameter of cell/total number of cells [2, 6]: 17.0 ± 1.2%
